Measurements taken from US9415055B2, “Cyclic amines” (H. Lundbeck A/S, priority 2012, dated 2016).

Molecular target: P2X7 receptor (Homo sapiens (Human), UniProt Q99572)
Assay: P2X7 FLIPR assay: antagonism of BzATP response in 293 HEK cells stably expressing P2X7 receptor
Assay type: cell-based
Conditions: FLIPR fluorescence (Fluo-4), agonist BzATP, 293 HEK cells stably transfected with P2X7 receptor
In short: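 Antagonist IC50 derived from FLIPR Tetra Fluo-4 calcium signal evoked by BzATP. Compound pre-incubation was 30 min at room temperature on P2X7-expressing HEK293 cells, seeded 24 h before in low-serum medium and dye-loaded 30 min at 37 °C then 30 min at RT.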

Chain of P2X7 receptor (Q99572 whole entry): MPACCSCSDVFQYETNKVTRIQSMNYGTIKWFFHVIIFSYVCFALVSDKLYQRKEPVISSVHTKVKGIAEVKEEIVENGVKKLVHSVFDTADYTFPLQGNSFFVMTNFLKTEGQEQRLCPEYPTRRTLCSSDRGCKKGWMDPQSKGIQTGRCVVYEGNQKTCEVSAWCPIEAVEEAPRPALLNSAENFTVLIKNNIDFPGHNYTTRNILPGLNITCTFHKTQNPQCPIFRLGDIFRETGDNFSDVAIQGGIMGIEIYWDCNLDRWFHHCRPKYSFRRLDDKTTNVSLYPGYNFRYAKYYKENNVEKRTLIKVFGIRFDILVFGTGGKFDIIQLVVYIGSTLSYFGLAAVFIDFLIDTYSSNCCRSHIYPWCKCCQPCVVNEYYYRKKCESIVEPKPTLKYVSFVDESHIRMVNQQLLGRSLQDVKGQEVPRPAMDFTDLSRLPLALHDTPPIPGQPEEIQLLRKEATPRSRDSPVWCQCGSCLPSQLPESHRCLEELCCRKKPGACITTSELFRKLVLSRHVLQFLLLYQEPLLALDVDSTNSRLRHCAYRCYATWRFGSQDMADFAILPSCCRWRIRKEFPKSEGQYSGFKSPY

In order of falling IC50:
1. Cc1ccc(Cl)c(C(=O)NCC(c2cccnc2)N2CCOCC2)c1 (centres unmarked) [2-Chloro-5-methyl-N-(2-morpholin-4-yl-2-pyridin-3-yl-ethyl)-benzamide]  3000 nM
2. O=C(NCC(c1cccnc1)N1CCOCC1)c1cccc(Cl)c1Cl (centres unmarked) [2,3-Dichloro-N-(2-morpholin-4-yl-2-pyridin-3-yl-ethyl)-benzamide]  1100 nM
3. Cc1ncc(C(CNC(=O)c2ccccc2Cl)N2CCCOCC2)cn1 (centres unmarked) [2-chloro-N-(2-(2-methylpyrimidin-5-yl)-2-(1,4-oxazepan-4-yl)ethyl)benzamide]  680 nM
4. Cc1ccc(C(CNC(=O)c2c(F)cccc2Cl)N2CCC(F)(F)CC2)cn1 (single isomer, unassigned; (+)) [(+)2-chloro-N-[2-(4,4-difluoro-1-piperidyl)-2-(6-methyl-3-py] [(+)2-chloro-N-(2-(4,4-difluoropiperidin-1-yl)-2-(6-methylpyridin-3-yl)ethyl)-6-fluorobenzamide]  110 nM
5. O=C(NCC(c1cnc(C(F)F)nc1)N1CCOCC1)c1ccccc1Cl (single isomer, unassigned; (+)) [(+)2-chloro-N-[2-[2-(difluoromethyl)pyrimidin-5-yl]-2-morpho] [(+)2-chloro-N-(2-(2-(difluoromethyl)pyrimidin-5-yl)-2-morpholinoethyl)benzamide]  60 nM
6. Cc1ncc(C(CNC(=O)c2ccc(Cl)cc2Cl)N2CCC(F)(F)CC2)cn1 (centres unmarked) [2,4-dichloro-N-(2-(4,4-difluoropiperidin-1-yl)-2-(2-methylpyrimidin-5-yl)ethyl)benzamide]  44 nM
7. Cn1cc(C(CNC(=O)c2c(Cl)cccc2Cl)N2CCC(F)(F)CC2)cn1 (single isomer, unassigned; (-)) [(−)2,6-dichloro-N-[2-(4,4-difluoro-1-piperidyl)-2-(1-methylp] [(−)2,6-dichloro-N-(2-(4,4-difluoropiperidin-1-yl)-2-(1-methyl-1H-pyrazol-4-yl)ethyl)benzamide]  44 nM
8. Cc1ncc(C(CNC(=O)c2cccc(OC(F)F)c2Cl)N2CCC(F)(F)CC2)cn1 (single isomer, unassigned; (-)) [(−)2-chloro-3-(difluoromethoxy)-N-[2-(4,4-difluoro-1-piperid] [(−)2-chloro-3-(difluoromethoxy)-N-(2-(4,4-difluoropiperidin-1-yl)-2-(2-methylpyrimidin-5-yl)ethyl)benzamide]  37 nM
9. Cc1ccc(C(CNC(=O)c2cccc(F)c2Cl)N2CCC(F)(F)CC2)cn1 (single isomer, unassigned; (+)) [(+)2-chloro-N-[2-(4,4-difluoro-1-piperidyl)-2-(6-methyl-3-py] [(+)2-chloro-3-fluoro-N-(2-(4,4-difluoropiperidin-1-yl)-2-(2-methylpyridin-5-yl)ethyl)benzamide]  33 nM
10. Cn1cc(C(CNC(=O)c2cc(F)cc(Cl)c2Cl)N2CCC(F)(F)CC2)cn1 (single isomer, unassigned; (-)) [(−)2,3-dichloro-N-[2-(4,4-difluoro-1-piperidyl)-2-(1-methylp] [(−)2,3-dichloro-5-fluoro-N-(2-(4,4-difluoropiperidin-1-yl)-2-(1-methyl-1H-pyrazol-4-yl)ethyl)benzamide]  26 nM
11. Cc1ccc(C(CNC(=O)c2cccc(F)c2Cl)N2CCC(F)(F)CC2)cn1 (single isomer, unassigned; (-)) [(−)2-chloro-N-[2-(4,4-difluoro-1-piperidyl)-2-(6-methyl-3-pr] [(−)2-chloro-3-fluoro-N-(2-(4,4-difluoropiperidin-1-yl)-2-(2-methylpyridin-5-yl)ethyl)benzamide]  21 nM
12. Cc1ncc(C(CNC(=O)c2cccc(Cl)c2Cl)N2CCC(F)CC2)cn1 (single isomer, unassigned; (-)) [(−)2,3-dichloro-N-[2-(4-fluoro-1-piperidyl)-2-(2-methylpyrim] [(−)2,3-dichloro-N-(2-(4-fluoropiperidin-1-yl)-2-(2-methylpyrimidin-5-yl)ethyl)benzamide]  14 nM
13. O=C(NCC(c1cnc(C(F)(F)F)nc1)N1CCC(F)CC1)c1ccccc1Cl (single isomer, unassigned; (-)) [(−)2-chloro-N-[2-(4-fluoro-1-piperidyl)-2-[2-(trifluoromethy] [(−)2-chloro-N-(2-(4-fluoropiperidin-1-yl)-2-(2-(trifluoromethyl)pyrimidin-5-yl)ethyl)benzamide]  13 nM
14. COc1cccc(C(=O)NCC(c2cnc(C)nc2)N2CCC(F)(F)CC2)c1Cl (single isomer, unassigned; (-)) [(−)2-chloro-N-[2-(4,4-difluoro-1-piperidyl)-2-(2-methylpyrim] [(−)2-chloro-3-methoxy-N-(2-(4,4-difluoropiperidin-1-yl)-2-(2-methylpyrimidin-5-yl)ethyl)benzamide]  11 nM
15. O=C(NCC(c1cnc(C2CC2)nc1)N1CCC(F)(F)CC1)c1c(F)cccc1Cl (single isomer, unassigned; (-)) [(−)2-chloro-N-[2-(2-cyclopropylpyrimidin-5-yl)-2-(4,4-difluo] [(−)2-chloro-6-fluoro-N-(2-(2-cyclopropylpyrimidin-5-yl)-2-(4,4-difluoropiperidin-1-yl)ethyl)benzamide]  11 nM
16. O=C(NCC(c1ccc(F)cc1)N1CCOCC1)c1cccc(Cl)c1Cl (centres unmarked) [2,3-Dichloro-N-[2-(4-fluoro-phenyl)-2-morpholin-4-yl-ethyl]-benzamide]  11 nM
17. O=C(NCC(c1cnc(C(F)(F)F)nc1)N1CCOCC1)c1cccc(C(F)(F)F)c1Cl (single isomer, unassigned; (-)) [(−)2-chloro-N-[2-morpholino-2-[2-(trifluoromethyl)pyrimidin-] [(−)2-Chloro-N-[2-morpholino-2-[2-(trifluoromethyl)pyrimidin-5-yl]ethyl]-3-(trifluoromethyl)benzamide]  9.9 nM
18. O=C(NCC(c1cnc(C2CC2)nc1)N1CCC(F)(F)CC1)c1ccccc1Cl (single isomer, unassigned; (-)) [(−)2-chloro-N-[2-(2-cyclopropylpyrimidin-5-yl)-2-(4,4-difluo] [(−)2-chloro-N-(2-(2-cyclopropylpyrimidin-5-yl)-2-(4,4-difluoropiperidin-1-yl)ethyl)benzamide]  7.6 nM
19. O=C(NCC(c1cnc(C(F)(F)F)nc1)N1CCC(F)(F)CC1)c1c(Cl)cc(F)cc1Cl (single isomer, unassigned; (+)) [(+)2,6-dichloro-N-[2-(4,4-difluoro-1-piperidyl)-2-[2-(triflu] [(+)2,6-dichloro-4-fluoro-N-(2-(4,4-difluoropiperidin-1-yl)-2-(2-(trifluoromethyl)pyrimidin-5-yl)ethyl)benzamide]  7.5 nM
20. Cc1ncc(C(CNC(=O)c2cccc(Cl)c2Cl)N2CCC(F)(F)CC2)cn1 (single isomer, unassigned; (-)) [(−)2,3-dichloro-N-[2-(4,4-difluoro-1-piperidyl)-2-(2-methylp] [(−)2,3-dichloro-N-(2-(4,4-difluoropiperidin-1-yl)-2-(2-methylpyrimidin-5-yl)ethyl)benzamide]  5.8 nM
21. Cc1ncc(C(CNC(=O)c2cccc(Cl)c2Cl)N2CCC(Cl)CC2)cn1 (centres unmarked) [2,3-dichloro-N-(2-(4-chloropiperidin-1-yl)-2-(2-methylpyrimidin-5-yl)ethyl)benzamide]  5.7 nM
22. O=C(NCC(c1ccc(C(F)(F)F)nc1)N1CCOCC1)c1cccc(Cl)c1Cl (single isomer, unassigned; (+)) [(+)2,3-dichloro-N-[2-morpholino-2-[6-(trifluoromethyl)-3-pyr] [(+)2,3-Dichloro-N-[2-morpholino-2-[6-(trifluoromethyl)-3-pyridyl]ethyl]benzamide]  5.5 nM
23. O=C(NCC(c1ccc(C(F)F)nc1)N1CCC(F)(F)CC1)c1c(Cl)cccc1Cl (single isomer, unassigned; (-)) [(−)2,6-dichloro-N-[2-[6-(difluoromethyl)-3-pyridyl]-2-(4,4-d] [(−)2,6-dichloro-N-(2-(2-(difluoromethyl)pyridin-5-yl)-2-(4,4-difluoropiperidin-1-yl)ethyl)benzamide]  5.5 nM
24. O=C(NCC(c1cnc(C(F)(F)F)nc1)N1CCC(F)(F)CC1)c1cc(F)cc(Cl)c1Cl (single isomer, unassigned; (+)) [(+)2,3-dichloro-N-[2-(4,4-difluoro-1-piperidyl)-2-[2-(triflu] [(+)2,3-dichloro-5-fluoro-N-(2-(4,4-difluoropiperidin-1-yl)-2-(2-(trifluoromethyl)pyrimidin-5-yl)ethyl)benzamide]  4.9 nM
25. O=C(NCC(c1cnc(C(F)(F)F)nc1)N1CCC(F)(F)CC1)c1c(Cl)cccc1Cl (single isomer, unassigned; (+)) [(+)2,6-dichloro-N-[2-(4,4-difluoro-1-piperidyl)-2-[2-(triflu] [(+)2,6-dichloro-N-(2-(4,4-difluoropiperidin-1-yl)-2-(2-(trifluoromethyl)pyrimidin-5-yl)ethyl)benzamide]  4.7 nM
26. O=C(NCC(c1cnc(C(F)(F)F)nc1)N1CCC(F)(F)CC1)c1c(F)cc(Cl)cc1Cl (single isomer, unassigned; (+)) [(+)2,4-dichloro-N-[2-(4,4-difluoro-1-piperidyl)-2-[2-(triflu] [(+)2,4-dichloro-6-fluoro-N-(2-(4,4-difluoropiperidin-1-yl)-2-(2-(trifluoromethyl)pyrimidin-5-yl)ethyl)benzamide]  4.7 nM
27. O=C(NCC(c1ccc(C(F)(F)F)nc1)N1CCOCC1)c1cccc(Cl)c1Cl (centres unmarked) [2,3-dichloro-N-[2-morpholino-2-[6-(trifluoromethyl)-3-pyridy] [2,3-Dichloro-N-[2-morpholino-2-[6-(trifluoromethyl)-3-pyridyl]ethyl]benzamide]  4.6 nM
28. O=C(NCC(c1cnc(C(F)(F)F)nc1)N1CCOCC1)c1cccc(Cl)c1Cl (single isomer, unassigned; (-)) [(−)2,3-dichloro-N-[2-morpholino-2-[2-(trifluoromethyl)pyrimi] [(−)2,3-Dichloro-N-[2-morpholino-2-[2-(trifluoromethyl)pyrimidin-5-yl]ethyl]benzamide]  3.2 nM
29. O=C(NCC(c1ccc(Cl)cc1)N1CCOCC1)c1cccc(Cl)c1Cl (centres unmarked) [2,3-Dichloro-N-[2-(4-chloro-phenyl)-2-morpholin-4-yl-ethyl]-benzamide]  0.6 nM
